In patent US9656990B2, “Cathepsin cysteine protease inhibitors” (Merck Sharp & Dohme Corp., priority 2014, dated 2017):

What was measured:
human cathepsin F = biological target: T1, human cathepsin F (Homo sapiens, UniProt Q9UBX1); assay: Cathepsin F Assay; format: biochemical; details: IP from dose response curve; Z-Phe-Arg-AMC substrate, pH 5.5; read-out: hCat F (IP (nM))
T1 sequence (Q9UBX1 271-484): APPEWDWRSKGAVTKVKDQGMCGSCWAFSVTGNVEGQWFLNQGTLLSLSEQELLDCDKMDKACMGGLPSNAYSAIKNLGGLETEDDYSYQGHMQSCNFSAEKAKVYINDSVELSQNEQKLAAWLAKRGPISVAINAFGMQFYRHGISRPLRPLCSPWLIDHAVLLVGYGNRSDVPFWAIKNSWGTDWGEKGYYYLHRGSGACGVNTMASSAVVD
How it was run: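 Human cathepsin F (10 nM) preincubated 15 min at room temperature with compounds in 50 mM MES pH 5.5, 2.5 mM EDTA, 2.5 mM DTT, 10% DMSO. Z-Phe-Arg-AMC (8 μM) added; AMC release read by fluorescence (Ex 360/Em 460 nm) over 20 min, inhibition fit to dose-response model.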

human cathepsin K = human cathepsin K (UniProt P43236, Y175D/V274L, species not given); assay: Cathepsin K Assay; format: biochemical; details: IP from dose response curve; Z-Leu-Arg-AMC substrate, pH 5.5; read-out: hrbCat K (IP (nM))

Row | SMILES | IC50 (human cathepsin F) [nM] | IC50 (human cathepsin K) [nM]
1 | C[C@@H](C#N)NC(=O)[C@@H]1C[C@@H](F)CC[C@H]1c1nn(-c2ncccc2F)cc1-c1ccc(N2CCS(=N)(=O)CC2)cc1 [Example 57, (1R,2R,5S)-N-((S)-1-cyanoethyl)-5-fluoro-2-(1-(3-fluoropyridin-2-yl)-4-(4-(1-imino-1-oxidothiomorpholino)phenyl)-1H-pyrazol-3-yl)cyclohexanecarboxamide] | 7770 | 8.3
2 | CC1(C)CC[C@@H](c2nn(-c3ccc(F)cc3)cc2-c2ccc(N3CCS(=O)(=O)CC3)cc2)[C@H](C(=O)NC2(C#N)CC2)C1 (single isomer, unassigned) [Example 127, (1S,2S) or (1R,2R)-N-(1-cyanocyclopropyl)-2-(4-(4-(1,1-dioxidothiomorpholino)phen-yl)-1-(4-fluorophenyl)-1H-pyrazol-3-yl)-5,5-dimethylcyclohexanecarbox-amide] | 632 | 1.5
3 | N#CC1(NC(=O)[C@@H]2C[C@@H](F)CC[C@H]2c2nn(-c3ccc(F)cn3)cc2-c2ccc(N3CCS(=O)(=O)CC3)cc2)CC1 [Example 10, (1R,2R,5S)—N-(1-Cyanocyclopropyl)-2-(4-(4-(1,1-dioxidothiomorpholino)phenyl)-1-(5-fluoropyridin-2-yl)-1H-pyrazol-3-yl)-5-fluorocyclohexanecarboxamide] | 1050 | 0.89
4 | N#CC1(NC(=O)[C@@H]2CC3CC3C[C@H]2c2nn(-c3ccc(Cl)cn3)cc2-c2ccc(N3CCS(=O)(=O)CC3)cc2)CC1 (single isomer, unassigned) [Example 155] | 197 | 0.56
5 | COc1ccc(-n2cc(-c3ccc(N4CCS(=O)(=O)CC4)cc3)c([C@@H]3CCCC[C@H]3C(=O)NC3(C#N)CC3)n2)nn1 [Example 162, (1R,2R)-N-(1-cyanocyclopropyl)-2-(4-(4-(1,1-dioxidothiomorpholino)phen-yl)-1-(6-methoxypyridazin-3-yl)-1H-pyrazol-3-yl)cyclohexanecarboxamide] | 654 | 0.84
6 | Cc1c(-c2ccc(N3CCS(=N)(=O)CC3)cc2)c([C@@H]2CCCC[C@H]2C(=O)N[C@H](C#N)C(C)C)nn1-c1ncccc1F [Example 52, (1R,2R)-N-((S)-1-cyano-2-methylpropyl)-2-(1-(3-fluoropyridin-2-yl)-4-(4-(1-imino-1-oxidothiomorpholino)phenyl)-5-methyl-1H-pyrazol-3-yl)cyclohexanecarboxamide] | 9320 | 22.5
7 | N#CC1(NC(=O)[C@@H]2CCCC[C@H]2c2nn(-c3ccccc3F)cc2-c2ccc(N3CCS(=O)(=O)CC3)cc2)CC1 [Example 98, (1R,2R)-N-(1-cyanocyclopropyl)-2-(4-(4-(1,1-dioxidothiomorpholino)phen-yl)-1-(2-fluorophenyl)-1H-pyrazol-3-yl)cyclohexanecarboxamide] | 946 | 0.91
8 | N#CC1(NC(=O)[C@@H]2CC(F)(F)CC[C@H]2c2nn(-c3ccc(F)cn3)c(CO)c2-c2ccc(N3CCS(=O)(=O)CC3)cc2)CC1 [Example 68, (1R,2R)-N-(1-cyanocyclopropyl)-2-(4-(4-(1,1-dioxidothiomorpholino)phen-yl)-1-(5-fluoropyridin-2-yl)-5-(hydroxymethyl)-1H-pyrazol-3-yl)-5,5-difluorocyclohexanecarbox-amide] | 125 | 1.41
9 | N#CC1(NC(=O)[C@@H]2CC(F)(F)CC[C@H]2c2nn3ccccc3c2-c2ccc(C(=O)N3CCOCC3)cc2)CC1 [Example 13, (1R,2R)—N-(1-cyanocyclopropyl)-5,5-difluoro-2-(3-(4-(morpholine-4-carbonyl)phenyl)pyrazolo[1,5-a]pyridin-2-yl)cyclohexanecarboxamide] | 339 | 4.84
10 | N#CC1(NC(=O)[C@@H]2CCCC[C@H]2c2nn(-c3ccccc3OC(F)(F)F)cc2-c2ccc(N3CCS(=O)(=O)CC3)cc2)CC1 [Example 125, (1R,2R)-N-(1-cyanocyclopropyl)-2-(4-(4-(1,1-dioxidothiomorpholino)phen-yl)-1-(2-(trifluoromethoxy)phenyl)-1H-pyrazol-3-yl)cyclohexanecarboxamide] | 836 | 2.18
11 | CC1(C)CCC(C(=O)NC2(C#N)CC2)C(c2nn(-c3ccc(F)cc3)cc2-c2ccc(N3CCS(=O)(=O)CC3)cc2)C1 (single isomer, unassigned) [Example 116, (1R,2R or 1S,2S)-N-(1-cyanocyclopropyl)-2-(4-(4-(1,1-dioxidothiomorpholino)phen-yl)-1-(4-fluorophenyl)-1H-pyrazol-3-yl)-4,4-dimethylcyclohexanecarbox-amide] | 1200 | 328
